Measurements taken from article PMC10771525 (Communications Biology, 2024).

Experiments:
[1] = target: PTGIR (Homo sapiens, UniProt P43119); test: GPCR panel (control), Arrestin, CHO-K1; assay type: cell-based; details: reference agonist
[2] = system: GPR92; test: GPCR panel (control), Arrestin, CHO-K1; assay type: cell-based, human; details: reference agonist
[3] = system: EDG2; test: GPCR panel (control), Arrestin, CHO-K1; assay type: cell-based, human; details: reference agonist
[4] = system: EDG4; test: GPCR panel (control), Arrestin, CHO-K1; assay type: cell-based, human; details: reference agonist
[5] = system: EDG7; test: GPCR panel (control), Arrestin, CHO-K1; assay type: cell-based, human; details: reference agonist
[6] = system: ADORA3; test: GPCR panel (control), Arrestin, CHO-K1; assay type: cell-based, human; details: reference agonist
[7] = system: TBXA2R; test: GPCR panel (control), Arrestin, U2OS; assay type: cell-based, human; details: reference agonist
[8] = system: HRH1; test: GPCR panel (control), Arrestin, CHO-K1; assay type: cell-based, human; details: reference agonist
[9] = system: GPR119; test: GPCR panel (control), Arrestin, U2OS; assay type: cell-based, human; details: reference agonist
[10] = target: CRTH2 (Homo sapiens, UniProt Q9Y5Y4); test: GPCR panel (control), Arrestin, U2OS; assay type: cell-based; details: reference agonist
Chain of CRTH2 (Q9Y5Y4 whole entry): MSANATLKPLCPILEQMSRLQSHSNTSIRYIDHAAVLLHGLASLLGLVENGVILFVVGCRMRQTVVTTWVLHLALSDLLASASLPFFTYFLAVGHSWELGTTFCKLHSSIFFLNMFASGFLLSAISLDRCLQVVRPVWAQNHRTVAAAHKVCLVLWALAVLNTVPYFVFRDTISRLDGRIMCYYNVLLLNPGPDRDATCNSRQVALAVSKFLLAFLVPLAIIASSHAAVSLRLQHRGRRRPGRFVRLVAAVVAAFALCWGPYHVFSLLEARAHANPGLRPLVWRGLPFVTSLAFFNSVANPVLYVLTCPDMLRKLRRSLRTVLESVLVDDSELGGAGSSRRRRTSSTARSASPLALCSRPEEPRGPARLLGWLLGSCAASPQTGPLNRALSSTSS

[11] = system: HRH3; test: GPCR panel (control), Arrestin, CHO-K1; assay type: cell-based, human; details: reference agonist
[12] = system: EDG6; test: GPCR panel (control), Arrestin, CHO-K1; assay type: cell-based, human; details: reference agonist
[13] = system: EDG1; test: GPCR panel (control), Arrestin, CHO-K1; assay type: cell-based, human; details: reference agonist
[14] = system: EDG3; test: GPCR panel (control), Arrestin, CHO-K1; assay type: cell-based, human; details: reference agonist
[15] = system: EDG5; test: GPCR panel (control), Arrestin, CHO-K1; assay type: cell-based, human; details: reference agonist
[16] = system: EDG8; test: GPCR panel (control), Arrestin, CHO-K1; assay type: cell-based, human; details: reference agonist
[17] = system: ADRA2C; details: reference agonist, CHO-K1, Arrestin
[18] = system: ADRA2A; details: reference agonist, CHO-K1, Arrestin
[19] = system: CCR2; test: GPCR panel (control), Arrestin, CHO-K1; assay type: cell-based, human; details: reference agonist
[20] = system: CCR5; test: GPCR panel (control), Arrestin, CHO-K1; assay type: cell-based, human; details: reference agonist
[21] = system: CCR1; test: GPCR panel (control), Arrestin, CHO; assay type: cell-based, human; details: reference agonist
[22] = system: CCR3; test: GPCR panel (control), Arrestin, CHO-K1; assay type: cell-based, human; details: reference agonist
[23] = system: CCR7; test: GPCR panel (control), Arrestin, CHO-K1; assay type: cell-based, human; details: reference agonist
[24] = system: CCR6; test: GPCR panel (control), Arrestin, CHO-K1; assay type: cell-based, human; details: reference agonist
[25] = system: CXCR3; test: GPCR panel (control), Arrestin, CHO-K1; assay type: cell-based, human; details: reference agonist
[26] = system: CXCR5; test: GPCR panel (control), Arrestin, CHO-K1; assay type: cell-based, human; details: reference agonist
[27] = system: CMKLR1; test: GPCR panel (control), Arrestin, CHO-K1; assay type: cell-based, human; details: reference agonist
[28] = system: GPR1; test: GPCR panel (control), Arrestin, CHO-K1; assay type: cell-based, human; details: reference agonist
[29] = system: CXCR2; test: GPCR panel (control), Arrestin, HEK-293; assay type: cell-based, human; details: reference agonist, CXCR2, HEK-293, Arrestin
[30] = system: CXCR1; test: GPCR panel (control), Arrestin, U2OS; assay type: cell-based, human; details: reference agonist
[31] = system: CX3CR1; test: GPCR panel (control), Arrestin, CHO-K1; assay type: cell-based, human; details: reference agonist
[32] = system: CCR10; test: GPCR panel (control), Arrestin, U2OS; assay type: cell-based, human; details: reference agonist
[33] = system: CCR8; test: GPCR panel (control), Arrestin, CHO-K1; assay type: cell-based, human; details: reference agonist
[34] = system: C5AR1; test: GPCR panel (control), Arrestin, CHO-K1; assay type: cell-based, human; details: reference agonist
[35] = system: C5LR2; test: GPCR panel (control), Arrestin, CHO-K1; assay type: cell-based, human; details: reference agonist
[36] = system: XCR1; test: GPCR panel screening, cAMP assay, XCR1; assay type: cell-based, human; details: reference agonist, XCR1, CHO
Procedure: The chemokine receptor XCR1, coupled to Gαi, was tested in cAMP assays.
Screening the GPCRs panels was performed by DiscoverX (Eurofins) using β-arrestin recruitment assays unless otherwise indicated (for details, see Supplementary Data 2). […]
chemokine receptors (CCR1, CCR2, CCR3, CCR4, CCR5, CCR6, CCR7, CCR8, CCR9, CCR10, CXCR1, CXCR2, CXCR3, CXCR4, CXCR5, CXCR6, and CX3CR1) versus their corresponding agonist at their determined EC80 (see Supplementary Data 2). CXCL14 was preincubated for 30 min, then the standard agonist for the investigated receptor was added, followed by another incubation for 90 min without washing step in between. The chemokine receptor XCR1, coupled to Gαi, was tested in cAMP assays. The readout was relative luminescence units (RLU). The percentage of inhibition was calculated using the following formula: % Inhibition = 100% x (1 - (mean RLU of CXCL14- mean RLU of vehicle control) / (mean RLU of EC80 control - mean RLU of vehicle control)). For further details see Supplementary Data 2.
(1 picture or pasted object on this page, not shown here)

[37] = system: CXCR6; test: GPCR panel (control), Arrestin, HEK-293; assay type: cell-based, human; details: reference agonist, CXCR6, HEK-293, Arrestin
[38] = system: CCR4; test: GPCR panel (control), Arrestin, CHO-K1; assay type: cell-based, human; details: reference agonist

Chain of PTGIR (P43119 1-383): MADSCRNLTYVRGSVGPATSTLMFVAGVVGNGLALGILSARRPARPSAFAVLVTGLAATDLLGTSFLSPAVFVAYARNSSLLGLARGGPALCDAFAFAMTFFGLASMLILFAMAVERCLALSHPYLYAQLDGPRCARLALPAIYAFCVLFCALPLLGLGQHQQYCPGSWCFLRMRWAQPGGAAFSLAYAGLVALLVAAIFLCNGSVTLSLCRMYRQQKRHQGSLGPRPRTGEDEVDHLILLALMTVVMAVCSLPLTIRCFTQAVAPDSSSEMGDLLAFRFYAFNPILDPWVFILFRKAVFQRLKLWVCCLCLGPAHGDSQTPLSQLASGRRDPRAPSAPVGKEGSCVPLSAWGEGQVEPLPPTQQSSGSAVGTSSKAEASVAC

CC#CCC(C)[C@H](O)/C=C/[C@@H]1[C@H]2c3cccc(CCCC(=O)O)c3O[C@H]2C[C@H]1O (mixture of isomers) [Beraprost]
EC50 [1]: 390 nM | EC80 [1]: 18 µM

CCCCCCCC/C=C\CCCCCCCC(=O)OCC(O)COP(=O)(O)O (stereo not shown) [1-Oleoyl-LPA]
EC50 [2]: […] | EC80 [2]: […] | EC50 [3]: 280 nM | EC80 [3]: 23 µM | EC50 [4]: […] | EC80 [4]: […] | EC50 [5]: […] | EC80 [5]: […]

O=C(O)CCC/C=C\C[C@@H]1[C@@H](/C=C/[C@@H](O)COc2ccc(I)cc2)[C@H]2CC[C@@H]1O2 [I-BOP]
EC50 [7]: 120 nM | EC80 [7]: 2.4 µM

CNCCc1cnc(CCC(c2ccccc2)c2ccccc2)[nH]1 [Methylhistaprodifen]
EC50 [8]: 48 nM | EC80 [8]: 11 µM

CCCCCCCC/C=C\CCCCCCCC(=O)NCCO [OEA]
EC50 [9]: 580 nM | EC80 [9]: 19 µM

CCCCC[C@H](O)/C=C/[C@H]1C(=O)C[C@H](O)[C@@H]1C/C=C\CCCC(=O)O [Prostaglandin D2]
EC50 [10]: 21 nM | EC80 [10]: 1.2 µM

CCCCCCCCCCCCC/C=C/[C@@H](O)[C@@H](N)COP(=O)(O)O [Sphingosine-1-phosphate]
EC50 [12]: 110 nM | EC80 [12]: 4.8 µM | EC50 [13]: 53 nM | EC80 [13]: 1.3 µM | EC50 [14]: 190 nM | EC80 [14]: 5.2 µM | EC50 [15]: 260 nM | EC80 [15]: 11 µM | EC50 [16]: 26 nM | EC80 [16]: 2.4 µM

CCL2
EC50 [19]: 3.1 nM | EC80 [19]: 200 nM

CCL3
EC50 [20]: 7.2 nM | EC80 [20]: 310 nM

CCL3/MIP1a
EC50 [21]: 8.1 nM | EC80 [21]: 570 nM

CCL13
EC50 [22]: 8.8 nM | EC80 [22]: 210 nM

CCL19
EC50 [23]: 9.5 nM | EC80 [23]: 230 nM

CCL20
EC50 [24]: 6.2 nM | EC80 [24]: 710 nM

CXCL11
EC50 [25]: 9.3 nM | EC80 [25]: 280 nM

CXCL13
EC50 [26]: 24 nM | EC80 [26]: 1.2 µM

Chemerin
EC50 [27]: 1 nM | EC80 [27]: 93 nM | EC50 [28]: 7.3 nM | EC80 [28]: 170 nM

Interleukin-8
EC50 [29]: 1.1 nM | EC80 [29]: 230 nM | EC50 [30]: 1.7 nM | EC80 [30]: 300 nM

B1: Fractalkine (protein, UniProt P78423 25-397, looked up)
Fractalkine: QHHGVTKCNITCSKMTSKIPVALLIHYQQNQASCGKRAIILETRQHRLFCADPKEQWVKDAMQHLDRQAAALTRNGGTFEKQIGEVKPRTTPAAGGMDESVVLEPEATGESSSLEPTPSSQEAQRALGTSPELPTGVTGSSGTRLPPTPKAQDGGPVGTELFRVPPVSTAATWQSSAPHQPGPSLWAEAKTSEAPSTQDPSTQASTASSPAPEENAPSEGQRVWGQGQSPRPENSLEREEMGPVPAHTDAFQDWGPGSMAHVSVVPVSSEGTPSREPVASGSWTPKAEEPIHATMDPQRLGVLITPVPDAQAATRRQAVGLLAFLGLLFCLGVAMFTYQSLQGCPRKMAGEMAEGLRYIPRSCGSNSYVLVPV
EC50 [31]: 0.13 nM | EC80 [31]: 15 nM

B2: CCL27 (protein, UniProt Q9Y4X3 25-112, looked up)
C-C motif chemokine 27: FLLPPSTACCTQLYRKPLSDKLLRKVIQVELQEADGDCHLQAFVLHLAQRSICIHPQNPSLSQWFEHQERKLHGTLPKLNFGMLRKMG
EC50 [32]: 65 nM | EC80 [32]: 1.7 µM

B3: CCL1 (protein, UniProt P22362 24-96, looked up)
C-C motif chemokine 1: KSMQVPFSRCCFSFAEQEIPLRAILCYRNTSSICSNEGLIFKLKRGKEACALDTVGWVQRHRKMLRHCPSKRK
EC50 [33]: 40 nM | EC80 [33]: 1.9 µM

B4: Complement C5a (protein, UniProt P01031 678-751, looked up)
C5a anaphylatoxin: TLQKKIEEIAAKYKHSVVKKCCYDGACVNNDETCEQRAARISLGPRCIKAFTECCVVASQLRANISHKDMQLGR
modifications: C5a anaphylatoxin
EC50 [34]: 1.3 nM | EC80 [34]: 71 nM | EC50 [35]: 2.2 nM | EC80 [35]: 43 nM

B5: XCL1/Lymphotactin (protein, UniProt P47992 22-114, looked up)
Lymphotactin: VGSEVSDKRTCVSLTTQRLPVSRIKTYTITEGSLRAVIFITKRGLKVCADPQATWVRDVVRSMDRKSNTRNNMIQTKPTGTQQSTNTAVTLTG
EC50 [36]: 8.8 nM | EC80 [36]: 480 nM

B6: CXCL16 (protein, UniProt Q9H2A7 30-254, looked up)
C-X-C motif chemokine 16: NEGSVTGSCYCGKRISSDSPPSVQFMNRLRKHLRAYHRCLYYTRFQLLSWSVCGGNKDPWVQELMSCLDLKECGHAYSGIVAHQKHLLPTSPPISQASEGASSDIHTPAQMLLSTLQSTQRPTLPVGSLSSDKELTRPNETTIHTAGHSLAAGPEAGENQKQPEKNAGPTARTSATVPVLCLLAIIFILTAALSYVLCKRRRGQSPQSSPDLPVHYIPVAPDSNT
EC50 [37]: 1.5 nM | EC80 [37]: 130 nM

B7: CCL22 (protein, UniProt O00626 25-93, looked up)
C-C motif chemokine 22: GPYGANMEDSVCCRDYVRYRLPLRVVKHFYWTSDSCPRPGVVLLTFRDKEICADPRVPWVKMILNKLSQ
EC50 [38]: 2.4 nM | EC80 [38]: 120 nM
